US9826773B2, “Brazzen multiple variants of increased sweetness, and production method for same” (CHUNG-ANG UNIVERSITY INDUSTRY—ACADEMIC COOPERATION …, priority 2012, dated 2017)

Columns and labels:
[1] = cited from earlier work; for thermal stability: background statement
human gustatory system = test: Measurement of sweetness activity using the human gustatory system (threshold of initially sensing sweetness); format: in vivo; conditions: for Level of sweetness compared to sucrose (g/g): mass basis; for Level of sweetness compared to sucrose (g/g) / Level of sweetness compared to sucrose (molecular): sucrose = 1; for Level of sweetness compared to sucrose (molecular): molar basis; for times as sweet as sucrose in the same mass: rounded values of the text; for times as sweet as the wild-type brazzein in the same mass: relative to wild-type brazzein
Protocol: Since brazzein is not a sugar but a protein, sweetness may not be measured using a saccharimeter. Consequently, the activity was measured using the human gustatory system. Since the threshold values of initially sensing sweetness are different per person, the activity was measured by comparing the concentrations of initially sensing sweetness between a sugar solution and a brazzein solution. The subjects were composed of 10 men and 10 women, who were trained in advance. First, the standard sugar solution was sequentially tasted, and the concentration of initially sensing sweetness was checked. Brazzein was dissolved in distilled water (10.0 mg/mL) and diluted to set the concentration to 1 to 20 ng/mL, and the sweetness of the solution was tasted and the concentration of sensing sweetness as the threshold value was checked to measure the relative activity of sweetness among sugar, wild-type brazzein, and a brazzein variant. Specifically, the activity was measured as follows. Before the activity was measured, the subject was informed in advance of the test date and time to sense the taste in tiptop conditions, and was prohibited from drinking alcohol the day before the test date and eating food immediately before the test. The subject washed the palate with bottled water prepared, and then a sample according to the concentration of each kind was tasted in each of an amount of 100 μl sequentially from a low concentration to a high concentration. The resulting data were obtained by discarding dubious values through the Q test, minimizing the standard deviation, and calculating the average.

[2] = same threshold expressed in molar concentration
[3] = trained panel of 10 men and 10 women, concentration of initially sensing sweetness, 100 μl samples tasted from low to high concentration

Row | Molecule | solubility and pH stability in water ([1]; Gao et al. 1999) | thermal stability [1] | Level of sweetness compared to sucrose (g/g) (human gustatory system) | Level of sweetness compared to sucrose (molecular) (human gustatory system) | times as sweet as sucrose in the same mass (human gustatory system) | times as sweet as the wild-type brazzein in the same mass (human gustatory system) | Threshold value of sweetness experiment (human gustatory system; [2]) | Threshold value of sweetness experiment (human gustatory system; [3])
1 | Brazzein: sweetener protein extracted from the fruit of Pentadiplandra brazzeana (Baillon) (QDKCKKVYENYPVSKCQLANQCNYDCKLDKHARSGECFYDEKRNLQCICDYCEY; UniProt P56552 1-54, looked up) | very high solubility and pH stability | very high thermal stability |  |  |  |  |  | 
2 | K4D_H30R_E35D_E40K: brazzein multiple variant, 4th Lys to Asp in tertiary variant H30R_E35D_E40K, SEQ ID NO. 11 (DKCDKVYENYPVSKCQLANQCNYDCKLAKRARSGDCFYDKKRNLQCICDYCEY; Brazzein Variant) |  |  | 1,598,481 | 28379848 | 1,500,000 times | 1,920 times | 0.00204 µM | 0.0000013 g (100 mL)^−1
3 | Monellin |  | low thermal stability |  |  |  |  |  | 
4 | K4E_H30R_E35D_E40R: brazzein multiple variant, 4th Lys to Glu in tertiary variant H30R_E35D_E40R, SEQ ID NO. 21 (DKCEKVYENYPVSKCQLANQCNYDCKLAKRARSGDCFYDRKRNLQCICDYCEY; Brazzein Variant) |  |  | 1,818,181 | 33761273 | 1,800,000 times | 2,270 times | 0.00172 µM | 0.0000011 g (100 mL)^−1
5 | OC[C@H]1O[C@@](CO)(O[C@H]2O[C@H](CO)[C@@H](O)[C@H](O)[C@H]2O)[C@@H](O)[C@@H]1O [Sucrose, reference compound] |  |  | 1 | 1 |  |  | 58,000 μM | 2.0 g (100 mL)^−1
6 | K4R_H30R_E35D_E40K: brazzein multiple variant, 4th Lys to Arg in tertiary variant H30R_E35D_E40K, SEQ ID NO. 13 (DKCRKVYENYPVSKCQLANQCNYDCKLAKRARSGDCFYDKKRNLQCICDYCEY; Brazzein Variant) |  |  | 2,000,000 | 37131600 | 2,000,000 times | 2,500 times | 0.00156 µM | 0.0000010 g (100 mL)^−1
7 | K4R_H30R_E35D_E40D: brazzein multiple variant, 4th Lys to Arg in tertiary variant H30R_E35D_E40D, SEQ ID NO. 19 (DKCRKVYENYPVSKCQLANQCNYDCKLAKRARSGDCFYDDKRNLQCICDYCEY; Brazzein Variant) |  |  | 1,666,666 | 30860187 | 1,700,000 times | 2,080 times | 0.00188 µM | 0.0000012 g (100 mL)^−1
8 | K4D_H30R_E35D_E40D: brazzein multiple variant, 4th Lys to Asp in tertiary variant H30R_E35D_E40D, SEQ ID NO. 17 (DKCDKVYENYPVSKCQLANQCNYDCKLAKRARSGDCFYDDKRNLQCICDYCEY; Brazzein Variant) |  |  | 1,333,333 | 24545600 | 1,300,000 times | 1,670 times | 0.00236 µM | 0.0000015 g (100 mL)^−1
9 | K4E_H30R_E35D_E40K: brazzein multiple variant, 4th Lys to Glu in tertiary variant H30R_E35D_E40K, SEQ ID NO. 12 (DKCEKVYENYPVSKCQLANQCNYDCKLAKRARSGDCFYDKKRNLQCICDYCEY; Brazzein Variant) |  |  | 1,666,666 | 30812500 | 1,700,000 times | 2,080 times | 0.00188 µM | 0.0000012 g (100 mL)^−1
10 | K4E_H30R_E35D_E40D: brazzein multiple variant, 4th Lys to Glu in tertiary variant H30R_E35D_E40D, SEQ ID NO. 18 (DKCEKVYENYPVSKCQLANQCNYDCKLAKRARSGDCFYDDKRNLQCICDYCEY; Brazzein Variant) |  |  | 1,250,000 | 23062250 | 1,250,000 times | 1,560 times | 0.00251 µM | 0.0000016 g (100 mL)^−1
11 | K4D_H30R_E35D_E40A: brazzein multiple variant, 4th Lys to Asp in tertiary variant H30R_E35D_E40A, SEQ ID NO. 14 (DKCDKVYENYPVSKCQLANQCNYDCKLAKRARSGDCFYDAKRNLQCICDYCEY; Brazzein Variant) |  |  | 2,000,000 | 36708861 | 2,000,000 times | 2,500 times | 0.00158 µM | 0.0000010 g (100 mL)^−1
12 | K4R_H30R_E35D_E40A: brazzein multiple variant, 4th Lys to Arg in tertiary variant H30R_E35D_E40A, SEQ ID NO. 16 (DKCRKVYENYPVSKCQLANQCNYDCKLAKRARSGDCFYDAKRNLQCICDYCEY; Brazzein Variant) |  |  | 2,857,143 | 52727273 | 2,900,000 times | 3,570 times | 0.0011 µM | 0.0000007 g (100 mL)^−1
13 | K4D_H30R_E35D_E40R: brazzein multiple variant, 4th Lys to Asp in tertiary variant H30R_E35D_E40R, SEQ ID NO. 20 (DKCDKVYENYPVSKCQLANQCNYDCKLAKRARSGDCFYDRKRNLQCICDYCEY; Brazzein Variant) |  |  | 1,818,181 | 33687455 | 1,800,000 times | 2,270 times | 0.00172 µM | 0.0000011 g (100 mL)^−1
14 | K4E_H30R_E35D_E40A: brazzein multiple variant, 4th Lys to Glu in tertiary variant H30R_E35D_E40A, SEQ ID NO. 15 (DKCEKVYENYPVSKCQLANQCNYDCKLAKRARSGDCFYDAKRNLQCICDYCEY; Brazzein Variant) |  |  | 2,000,000 | 36708861 | 2,000,000 times | 2,500 times | 0.00158 µM | 0.0000010 g (100 mL)^−1
15 | K4R_H30R_E35D_E40R: brazzein multiple variant, 4th Lys to Arg in tertiary variant H30R_E35D_E40R, SEQ ID NO. 22 (DKCRKVYENYPVSKCQLANQCNYDCKLAKRARSGDCFYDRKRNLQCICDYCEY; Brazzein Variant) |  |  | 2,000,000 | 37284000 | 2,000,000 times | 2,500 times | 0.00156 µM | 0.0000010 g (100 mL)^−1
16 | WT-Brazzein: wild-type brazzein, molecular weight 6501 in Table 3 (QDKCKKVYENYPVSKCQLANQCNYDCKLDKHARSGECFYDEKRNLQCICDYCEY; UniProt P56552 1-54, looked up) [reference compound] |  |  | 800 | 15,082 |  |  | 3.846 µM | 0.0025 g (100 mL)^−1
